According to paper PMC12216609, “Inhibitors of eIF1A-ribosome interaction unveil uORF-dependent regulation of translation initiation and antitumor and antiviral effects” (The EMBO Journal, 2025):
Where “and” joins values, the source holds several entries; their conditions need not be identical. Equal entries are not always repeated. Where two headings read alike, the source gives them in different places.

Experiments:
eIF1A = target: T1, eIF1A (Homo sapiens, UniProt P47813); assay type: binding; conditions: for fluorescence ratio, eIF1A: background-corrected, relative to DMSO or lowest 1Ai concentration, replicate columns; for WT eIF1A IC50: fluorescence binding; for IC50 concentration (µM), WT eIF1A: summary table, fluorescence binding assay
T1 construct: His-bdSUMO (cleaved yes); made in house; host or cells: E. coli BL-21
T1 sequence (P47813 whole entry): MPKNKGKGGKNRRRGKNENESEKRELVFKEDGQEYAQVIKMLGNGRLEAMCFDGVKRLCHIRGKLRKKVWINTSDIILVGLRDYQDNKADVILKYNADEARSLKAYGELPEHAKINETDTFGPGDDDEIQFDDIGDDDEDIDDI

eIF1A-RPS10 interaction = target: T2, eIF1A-RPS10 interaction (Homo sapiens, UniProt P46783+P47813); assay: Split-Renilla luciferase eIF1A-RPS10 interaction screen, dose-response; assay type: biochemical; conditions: summary table; read-out: IC50 concentration (µM), IC50 screen
T2 construct: made in house; host or cells: E. coli BL21 (PRSFduet); unpurified lysate supernatant
T2 sequence (P47813 whole entry, one chain of several): as the sequence (P47813 whole entry) above
Method: While knockdown (KD) studies of eIF1A provided valuable insights into its role in mammalian cell translation (Sehrawat et al, [2019]), this approach presents several limitations. First, it fails to elucidate the functional significance of the opposing functions of eIF1A N- and C-terminal tails with respect to scanning and start codon fidelity. Second, the extended duration required for achieving efficient knockdown, 48–72 h, impairs our ability to differentiate between direct and indirect effects. To overcome these constraints, we set out to develop small-molecule inhibitors targeting eIF1A. Guided by structural and biochemical studies showing eIF1A binding to the small ribosomal subunit at the A-site and interacting directly with RPS10 through its N-terminal tail (Haimov et al, [2017]; Passmore et al, [2007]; Sehrawat et al, [2019]), our approach focused on disrupting the interaction between eIF1A and RPS10. […] The interaction between eIF1A and RPS10 brings the two parts together, leading to the reconstitution of the enzymatic activity (Haimov et al, [2017]). In this system, the spatial arrangement of the two RL parts is critical for the enzymatic activity, making it sensitive not only to direct interference with the interacting proteins but also to changes in the conformation of the fused proteins. In the eIF1A-RPS10 split-RL pair, the C-terminus of eIF1A is fused to N-RL (Fig. 1A), in order to maintain the NTT accessible to RPS10 binding. This pair was cloned and expressed in bacteria as recombinant proteins and used to screen a library of ~50,000 small molecules from diverse sources (Ashkenazi et al, [2017]).
eIF1A-ΔC-Renilla and RPS10-ΔN-Renilla were transformed into BL21 E. coli by heat shock transformation. A bacterial starter of 5 ml LB was incubated overnight at 37 °C and transferred into 1 L LB for incubation at 37 °C until OD ~ 0.5–0.7. Next, protein expression was induced with 0.5 mM IPTG, and bacterial cells were incubated overnight at 16 °C. Bacterial cell pellet was collected after centrifugation (3000 RPM, 15 min), resuspended in 20 ml TKE buffer (Tris 10 mM, KCl 100 mM, EDTA 0.1 mM), sonicated (bath sonicator, 24 cycles of 30 s) and centrifuged again (15000 RPM, 30 min). Supernatants were collected, analyzed for RL activity, and then used for high throughput drug screen (HTS) at the Weizmann G-INCPM HTS unit as described (Ashkenazi et al, [2017]). In addition to the standard controls of this protocol, the two parts of the split RL, without eIF1A or RPS10, were tested as controls. Selected compounds were purchased from Sigma-Aldrich and Enamine. Compound powders were resuspended in DMSO for a final concentration of 10 mM and stored at −20 °C.

Row | Compound | fluorescence ratio, eIF1A (eIF1A; 1Ai conc. 0.25 uM) | fluorescence ratio, eIF1A (eIF1A; 1Ai conc. 0.5 uM) | fluorescence ratio, eIF1A (eIF1A; 1Ai conc. 1 uM) | fluorescence ratio, eIF1A (eIF1A; 1Ai conc. 2 uM) | fluorescence ratio, eIF1A (eIF1A; 1Ai conc. 4 uM) | fluorescence ratio, eIF1A (eIF1A; 1Ai conc. 8 uM) | fluorescence ratio, eIF1A (eIF1A; 1Ai conc. 16 uM) | fluorescence ratio, eIF1A (eIF1A; 1Ai conc. 32 uM) | fluorescence ratio, eIF1A (eIF1A; 1Ai conc. 64 uM) | fluorescence ratio, eIF1A (eIF1A; 1Ai conc. 256 uM) | WT eIF1A IC50 (eIF1A) | IC50 concentration (µM), WT eIF1A (eIF1A) | IC50 (eIF1A-RPS10 interaction) [µM]
1 | O=S(=O)(c1ccccc1)N1CCN(C2c3ccccc3-c3ccccc32)CC1 [1Ai-9025] | 0.9827 and 0.9579 | 0.9655 and 0.9562 | 0.9303 and 0.9366 | 0.9516 and 0.9059 | 0.9297 and 0.9235 | 0.9058 and 0.9493 | 0.9688 and 0.9828 | 0.9874 and 1.077 | 1.153 and 1.164 | 1.25 and 1.3257 | No binding | No binding | 17
2 | C=CCNC(=O)CN1CCN(Cc2nc3cc(-c4ccc(Cl)cc4)sc3c(=O)[nH]2)CC1 [1Ai-1524] | 1.099 and 1 | 1.123 and 1.057 | 1.12 and 1.013 | 1.158 and 0.9647 | 1.086 and 0.8847 | 0.9254 and 0.8076 | 0.9496 and 0.7767 | 1.01 and 0.848 | 0.9931 and 0.7702 | 1.036 and 1.149 | No binding | No binding | 30
